MIC data for 29 compounds are collected here from patent US10471046B2, “Method for treating, preventing, or reducing the risk of skin infection” (Melinta Subsidiary Corp., priority 2014, dated 2019).

In brackets after ≈: the same amount, converted by molar mass.

The test system of one assay is S. aureus. Briefly: Minimum inhibitory concentrations (MICs) for S. aureus of exemplary compounds (Table 2). As to conditions: Staphylococcus aureus, minimum inhibitory concentrations for S. aureus; read-out: MICs. The class given is cell-based. The method, boiled down:
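MICs (μg/mL) against S. aureus come from microtiter-tray dilution susceptibility testing per NCCLS M7-A5, comparing growth with and without compound.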
Consider `CC(=O)NC[C@H]1CN(c2ccc(-c3ccc(C(=O)NCc4ccccn4)c(F)c3)c(F)c2)C(=O)O1` [Compound 4190, 4′-[5-(S)-(Acetylamino-methyl)-2-oxo-oxazolidin-3-yl]-3,2′-difluoro-biphenyl-4-carboxylic acid (pyridin-2-ylmethyl)-amide], for which the MIC worked out at 1 µg/mL (≈ 2.08 µM).
As to `CC(=O)NC[C@H]1CN(c2ccc(-c3ccc(C(=O)NCCc4cnc[nH]4)c(F)c3)c(F)c2)C(=O)O1` [Compound 4191, 4′-[5-(S)-(Acetylamino-methyl)-2-oxo-oxazolidin-3-yl]-3,2′-difluoro-biphenyl-4-carboxylic acid [2-(3H-imidazol-4-yl)-ethyl]-amide], the MIC turned out to be 1 µg/mL (≈ 2.07 µM).
Take `CC(=O)NC[C@H]1CN(c2ccc(-c3ccc(COCc4ccccn4)cc3)c(F)c2)C(=O)O1` [Compound 4192, N-{3-[2-Fluoro-4′-(pyridin-2-ylmethoxymethyl)-biphenyl-4-yl]-2-oxo-oxazolidin-5-(S)-ylmethyl}-acetamide]: the MIC was 1 µg/mL (≈ 2.22 µM).
With `CC(=O)NC[C@H]1CN(c2ccc(-c3ccc(CNC(=O)/C=C/c4ccc(=O)n(C)c4)cc3)c(F)c2)C(=O)O1` [Compound 4193, N-{4′-[5-(S)-(Acetylamino-methyl)-2-oxo-oxazolidin-3-yl]-2′-fluoro-biphenyl-4-ylmethyl}-3-(1-methyl-6-oxo-1,6-dihydro-pyridin-3-yl)-acrylamide], the MIC was 8 µg/mL (≈ 15.4 µM).
As to `CC(=O)NC[C@H]1CN(c2ccc(-c3ccc(CNC(=O)/C=C/c4cccn(C)c4=O)cc3)c(F)c2)C(=O)O1` [Compound 4194, N-{4′-[5-(S)-(Acetylamino-methyl)-2-oxo-oxazolidin-3-yl]-2′-fluoro-biphenyl-4-ylmethyl}-3-(1-methyl-2-oxo-1,2-dihydro-pyridin-3-yl)-acrylamide], the MIC came to 2 µg/mL (≈ 3.86 µM).
`CC(=O)NC[C@H]1CN(c2ccc(-c3ccc(COCc4ccccn4)nc3)c(F)c2)C(=O)O1` [Compound 4195, N-(3-{3-Fluoro-4-[6-(pyridin-2-ylmethoxymethyl)-pyridin-3-yl]-phenyl}-2-oxo-oxazolidin-5-(S)-ylmethyl)-acetamide]: the MIC is 1 µg/mL (≈ 2.22 µM).
With `CC(=O)NC[C@H]1CN(c2ccc(-c3ccc(COCc4ccncc4)cc3)c(F)c2)C(=O)O1` [Compound 4196, N-{3-[2-Fluoro-4′-(pyridin-4-ylmethoxymethyl)-biphenyl-4-yl]-2-oxo-oxazolidin-5-(S)-ylmethyl}-acetamide], the MIC was found to be 1 µg/mL (≈ 2.22 µM).
For the compound `CC(=O)NC[C@H]1CN(c2ccc(-c3ccc(COCc4ccccn4)cn3)c(F)c2)C(=O)O1` [Compound 4197, N-(3-{3-Fluoro-4-[5-(pyridin-2-ylmethoxymethyl)-pyridin-2-yl]-phenyl}-2-oxo-oxazolidin-5-(S)-ylmethyl)-acetamide], the MIC is 4 µg/mL (≈ 8.88 µM).
`CC(=O)NC[C@H]1CN(c2ccc(-c3ccc(COCc4cc[n+]([O-])cc4)cc3)c(F)c2)C(=O)O1` [Compound 4198, N-{3-[2-Fluoro-4′-(1-oxy-pyridin-4-ylmethoxymethyl)-biphenyl-4-yl]-2-oxo-oxazolidin-5-(S)-ylmethyl}-acetamide]: the MIC turned out to be 2 µg/mL (≈ 4.3 µM).
For the compound `CC(=O)NC[C@H]1CN(c2ccc(-c3ccc([C@@H](O)CNCc4cocn4)cc3)c(F)c2)C(=O)O1` [Compound 4199, N-[3-(2-Fluoro-4′-{1-(R)-hydroxy-2-[(oxazol-4-ylmethyl)-amino]-ethyl}-biphenyl-4-yl)-2-oxo-oxazolidin-5-(S)-ylmethyl]-acetamide], the MIC turned out to be 4 µg/mL (≈ 8.54 µM).
Same read-out and setting: the result for `CC(=O)NC[C@H]1CN(c2ccc(-c3ccc([C@@H](CO)NCc4cocn4)cc3)c(F)c2)C(=O)O1` [Compound 4200, N-[3-(2-Fluoro-4′-{2-hydroxy-1-(S)-[(oxazol-4-ylmethyl)-amino]-ethyl}-biphenyl-4-yl)-2-oxo-oxazolidin-5-(S)-ylmethyl]-acetamide] reads 4 µg/mL (≈ 8.54 µM); that for `CC(=O)NC[C@H]1CN(c2ccc(-c3ccc([C@@H](O)CNCc4ccncc4)cc3)c(F)c2)C(=O)O1` [Compound 4201, N-[3-(2-Fluoro-4′-{1-(R)-hydroxy-2-[(pyridin-4-ylmethyl)-amino]-ethyl}-biphenyl-4-yl)-2-oxo-oxazolidin-5-(S)-ylmethyl]-acetamide], 2 µg/mL (≈ 4.18 µM).
With `CC(=O)NC[C@H]1CN(c2ccc(-c3ccc([C@H](CO)NCc4ccncc4)cc3)c(F)c2)C(=O)O1` [Compound 4202, N-[3-(2-Fluoro-4′-{2-hydroxy-1-(R)-[(pyridin-4-ylmethyl)-amino]-ethyl}-biphenyl-4-yl)-2-oxo-oxazolidin-5-(S)-ylmethyl]-acetamide], the MIC was 4 µg/mL (≈ 8.36 µM).
Regarding `CC(=O)NC[C@H]1CN(c2ccc(-c3ccc(CN(Cc4csnn4)C(C)=O)cc3)c(F)c2)C(=O)O1` [Compound 4204, N-(3-{4′-[(Acetyl-[1,2,3]thiadiazol-4-ylmethyl-amino)-methyl]-2-fluoro-biphenyl-4-yl}-2-oxo-oxazolidin-5-(S)-ylmethyl)-acetamide], the MIC turned out to be 2 µg/mL (≈ 4.02 µM).
For the compound `CC(=O)NC[C@H]1CN(c2ccc(-c3ccc(C(=O)NCc4cocn4)cc3)c(F)c2)C(=O)O1` [Compound 4205, 4′-[5-(S)-(Acetylamino-methyl)-2-oxo-oxazolidin-3-yl]-2′-fluoro-biphenyl-4-carboxylic acid (oxazol-4-ylmethyl)-amide], the MIC turned out to be 1 µg/mL (≈ 2.21 µM).
Still for that read-out and setting: with `CC(=O)NC[C@H]1CN(c2ccc(-c3ccc(CNCc4ncsn4)cc3)c(F)c2)C(=O)O1` [Compound 4206, N-[3-(2-Fluoro-4′-{[([1,2,4]thiadiazol-3-ylmethyl)-amino]-methyl}-biphenyl-4-yl)-2-oxo-oxazolidin-5-(S)-ylmethyl]-acetamide] the figure was 1 µg/mL (≈ 2.2 µM); with `CC(=O)NC[C@H]1CN(c2ccc(-c3ccc(CNC(=O)c4csc(NCc5ccc(Cl)cc5)n4)cc3)c(F)c2)C(=O)O1` [Compound 4207, 2-(4-Chloro-benzylamino)-thiazole-4-carboxylic acid {4′-[5-(S)-(acetylamino-methyl)-2-oxo-oxazolidin-3-yl]-2′-fluoro-biphenyl-4-ylmethyl}-amide], 2 µg/mL (≈ 3.29 µM); with `CC(=O)NC[C@H]1CN(c2ccc(-c3ccc(CNCc4cnco4)cc3)c(F)c2)C(=O)O1` [Compound 4208, N-[3-(2-Fluoro-4′-{[(oxazol-5-ylmethyl)-amino]-methyl}-biphenyl-4-yl)-2-oxo-oxazolidin-5-(S)-ylmethyl]-acetamide], 1 µg/mL (≈ 2.28 µM).
Take `CC(=O)NC[C@H]1CN(c2ccc(-c3ccc(CNCC4OCCO4)cc3)c(F)c2)C(=O)O1` [Compound 4209, N-[3-(4′-{[([1,3]Dioxolan-2-ylmethyl)-amino]-methyl}-2-fluoro-biphenyl-4-yl)-2-oxo-oxazolidin-5-(S)-ylmethyl]-acetamide]: the MIC is 0.5 µg/mL (≈ 1.13 µM).
Turning to `CC(=O)NC[C@H]1CN(c2ccc(-c3ccc(CNCC4CO4)cc3)c(F)c2)C(=O)O1` (stereo partly drawn) [Compound 4210, N-(3-{2-Fluoro-4′-[(oxiranylmethyl-amino)-methyl]-biphenyl-4-yl}-2-oxo-oxazolidin-5-(S)-ylmethyl)-acetamide], the MIC came to 4 µg/mL (≈ 9.67 µM).
On to `CC(=O)NC[C@H]1CN(c2ccc(-c3ccc(CSCc4ccncc4)cc3)c(F)c2)C(=O)O1` [Compound 4211, N-{3-[2-Fluoro-4′-(pyridin-4-ylmethylsulfanylmethyl)-biphenyl-4-yl]-2-oxo-oxazolidin-5-(S)-ylmethyl}-acetamide], for which the MIC was found to be 0.25 µg/mL (≈ 0.537 µM).
As to `CC(=O)NC[C@H]1CN(c2ccc(-c3ccc(C[S+]([O-])Cc4ccncc4)cc3)c(F)c2)C(=O)O1` (stereo partly drawn) [Compound 4212, N-{3-[2-Fluoro-4′-(pyridin-4-ylmethanesulfinylmethyl)-biphenyl-4-yl]-2-oxo-oxazolidin-5-(S)-ylmethyl}-acetamide], the MIC is 0.25 µg/mL (≈ 0.519 µM).
In the case of `O=C1O[C@@H](CO)CN1c1ccc(-c2ccc(CNCc3ccncc3)cc2)c(F)c1` [Compound 4213, 3-(2-Fluoro-4′-{[(pyridin-4-ylmethyl)-amino]-methyl}-biphenyl-4-yl)-5-(R)-hydroxymethyl-oxazolidin-2-one], the MIC was determined as 4 µg/mL (≈ 9.82 µM).
Consider `CC(=O)NC[C@H]1CN(c2ccc(-c3ccc(CS(=O)(=O)Cc4ccncc4)cc3)c(F)c2)C(=O)O1` [Compound 4214, N-{3-[2-Fluoro-4′-(pyridin-4-ylmethanesulfonylmethyl)-biphenyl-4-yl]-2-oxo-oxazolidin-5-(S)-ylmethyl}-acetamide], for which the MIC stood at 1 µg/mL (≈ 2.01 µM).
As for `CC(=O)NC[C@H]1CN(c2ccc(-c3ccc(CN(C)Cc4cnc5ccccc5c4)cc3)c(F)c2)C(=O)O1` [Compound 4215, N-(3-{2-Fluoro-4′-[(methyl-quinolin-3-ylmethyl-amino)-methyl]-biphenyl-4-yl}-2-oxo-oxazolidin-5-(S)-ylmethyl)-acetamide], the MIC was 0.25 µg/mL (≈ 0.488 µM).
In the case of `CC(=O)NC[C@H]1CN(c2ccc(-c3ccc(CSCc4ccccn4)cc3)c(F)c2)C(=O)O1` [Compound 4216, N-{3-[2-Fluoro-4′-(pyridin-2-ylmethylsulfanylmethyl)-biphenyl-4-yl]-2-oxo-oxazolidin-5-(S)-ylmethyl}-acetamide], the MIC is 0.5 µg/mL (≈ 1.07 µM).
Same read-out and setting: the result for `CC(=O)NC[C@H]1CN(c2ccc(-c3ccc(C[S+]([O-])Cc4ccccn4)cc3)c(F)c2)C(=O)O1` (stereo partly drawn) [Compound 4217, N-{3-[2-Fluoro-4′-(pyridin-2-ylmethanesulfinylmethyl)-biphenyl-4-yl]-2-oxo-oxazolidin-5-(S)-ylmethyl}-acetamide] reads 1 µg/mL (≈ 2.08 µM); that for `CC(=O)NC[C@H]1CN(c2ccc(-c3ccc(CNCc4cn(C)c5ccccc45)cc3)c(F)c2)C(=O)O1` [Compound 4218, N-[3-(2-Fluoro-4′-{[(1-methyl-1H-indol-3-ylmethyl)-amino]-methyl}-biphenyl-4-yl)-2-oxo-oxazolidin-5-(S)-ylmethyl]-acetamide], 2 µg/mL (≈ 4 µM).

The same assay, now with this note: Staphylococcus aureus, read-out: MICs.
Turning to `CC(=O)NC[C@H]1CN(c2ccc(-c3ccc(CNCc4cncnc4)cc3)c(F)c2)C(=O)O1` [Compound 4203, N-[3-(2-Fluoro-4′-{[(pyrimidin-5-ylmethyl)-amino]-methyl}-biphenyl-4-yl)-2-oxo-oxazolidin-5-(S)-ylmethyl]-acetamide], the MIC was determined as 1 µg/mL (≈ 2.22 µM).
